Assays:
[1] = target: 5-HT5a (h) (Homo sapiens, UniProt P47898); test: CEREP ExpresSProfile; settings: read-out: Mean % of control specific binding (±SD)
[2] = target: RIPK2 (Homo sapiens, UniProt O43353); test: kinase Express Screen; assay type: biochemical
Experimental: (§1) Kinase Remaining activity
(§2) Table S9. 9-ME-1 Kinase Screen
(§3) Activity of panel of human kinases following treatment with 1 µM (2R, 3S)-7. Dundee MRC-PPU Express Screen
(§4) (http://www.kinase-screen.mrc.ac.uk/services/express-screen)

[3] = target: PAK4 (Homo sapiens, UniProt O96013); test: kinase Express Screen; assay type: biochemical
Chain of PAK4 (O96013 whole entry): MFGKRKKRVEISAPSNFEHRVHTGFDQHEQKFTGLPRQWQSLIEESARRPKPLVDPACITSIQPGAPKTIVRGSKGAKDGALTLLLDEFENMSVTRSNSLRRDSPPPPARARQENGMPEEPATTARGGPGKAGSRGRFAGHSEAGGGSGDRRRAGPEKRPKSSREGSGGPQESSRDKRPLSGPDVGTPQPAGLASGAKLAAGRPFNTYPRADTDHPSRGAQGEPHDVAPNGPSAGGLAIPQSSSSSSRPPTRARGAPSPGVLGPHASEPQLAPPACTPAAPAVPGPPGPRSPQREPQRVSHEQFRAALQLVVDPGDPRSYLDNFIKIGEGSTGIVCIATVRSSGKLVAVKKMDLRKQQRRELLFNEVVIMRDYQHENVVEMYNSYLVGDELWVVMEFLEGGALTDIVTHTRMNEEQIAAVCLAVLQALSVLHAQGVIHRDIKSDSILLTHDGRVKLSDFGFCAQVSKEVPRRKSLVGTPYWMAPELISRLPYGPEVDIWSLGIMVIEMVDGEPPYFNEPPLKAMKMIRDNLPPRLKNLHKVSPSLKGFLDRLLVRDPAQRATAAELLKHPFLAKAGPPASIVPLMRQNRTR
Experimental: as §1, §2, §3, §4

[4] = target: PLK1 (Homo sapiens, UniProt P53350); test: kinase Express Screen; assay type: biochemical
Chain of PLK1 (P53350 whole entry): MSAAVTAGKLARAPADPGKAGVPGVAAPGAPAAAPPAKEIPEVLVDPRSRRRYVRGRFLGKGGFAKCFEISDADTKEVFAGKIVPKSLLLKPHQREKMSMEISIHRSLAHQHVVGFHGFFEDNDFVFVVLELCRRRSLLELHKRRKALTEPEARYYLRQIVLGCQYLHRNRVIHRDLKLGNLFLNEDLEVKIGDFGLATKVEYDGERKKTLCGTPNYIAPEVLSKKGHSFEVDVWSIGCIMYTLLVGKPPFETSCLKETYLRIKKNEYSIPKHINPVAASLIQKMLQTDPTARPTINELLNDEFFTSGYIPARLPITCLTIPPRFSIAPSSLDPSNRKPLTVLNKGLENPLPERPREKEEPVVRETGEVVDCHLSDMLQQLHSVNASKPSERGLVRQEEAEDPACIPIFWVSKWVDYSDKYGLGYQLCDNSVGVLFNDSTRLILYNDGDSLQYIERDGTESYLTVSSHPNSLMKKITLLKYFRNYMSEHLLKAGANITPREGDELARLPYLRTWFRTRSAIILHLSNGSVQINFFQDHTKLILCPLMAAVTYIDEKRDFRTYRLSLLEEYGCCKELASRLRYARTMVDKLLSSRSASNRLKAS
Experimental: as §1, §2, §3, §4

[5] = target: IGF-1R (Homo sapiens, UniProt P08069); test: kinase Express Screen; assay type: biochemical
Experimental: as §1, §2, §3, §4

[6] = target: PDK1 (Homo sapiens, UniProt O15530); test: kinase Express Screen; assay type: biochemical
Experimental: as §1, §2, §3, §4

[7] = target: CAMKKb (Homo sapiens, UniProt Q96RR4); test: kinase Express Screen; assay type: biochemical
Experimental: as §1, §2, §3, §4

[8] = target: Src (Homo sapiens, UniProt P12931); test: kinase Express Screen; assay type: biochemical
Experimental: as §1, §2, §3, §4

[9] = target: CAMK1 (Homo sapiens, UniProt Q14012); test: kinase Express Screen; assay type: biochemical
Chain of CAMK1 (Q14012 whole entry): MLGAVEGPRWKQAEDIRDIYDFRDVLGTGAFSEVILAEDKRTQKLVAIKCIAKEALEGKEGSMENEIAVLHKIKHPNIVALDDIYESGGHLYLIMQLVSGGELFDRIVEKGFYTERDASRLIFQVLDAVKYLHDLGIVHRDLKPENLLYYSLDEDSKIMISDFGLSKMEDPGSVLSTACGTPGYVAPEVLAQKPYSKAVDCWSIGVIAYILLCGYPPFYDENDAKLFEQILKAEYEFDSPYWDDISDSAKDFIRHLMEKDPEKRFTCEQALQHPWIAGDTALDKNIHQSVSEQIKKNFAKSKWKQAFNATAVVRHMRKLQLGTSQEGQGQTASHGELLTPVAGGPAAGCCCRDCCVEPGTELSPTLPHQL
Experimental: as §1, §2, §3, §4

[10] = target: TAK1 (Homo sapiens, UniProt O43318); test: kinase Express Screen; assay type: biochemical
Chain of TAK1 (O43318 1-303 limits assumed): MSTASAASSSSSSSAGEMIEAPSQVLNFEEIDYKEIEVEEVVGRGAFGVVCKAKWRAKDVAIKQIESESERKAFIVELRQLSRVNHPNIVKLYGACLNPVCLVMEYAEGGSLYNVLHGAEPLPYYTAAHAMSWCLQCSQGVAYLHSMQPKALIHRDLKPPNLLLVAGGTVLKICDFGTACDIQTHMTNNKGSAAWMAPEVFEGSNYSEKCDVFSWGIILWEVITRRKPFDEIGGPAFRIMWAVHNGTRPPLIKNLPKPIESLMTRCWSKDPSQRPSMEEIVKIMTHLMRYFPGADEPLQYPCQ
Experimental: as §1, §2, §3, §4

[11] = target: RSK1 (Homo sapiens, UniProt Q15418); test: kinase Express Screen; assay type: biochemical
Experimental: as §1, §2, §3, §4

[12] = target: CK2 (Homo sapiens, UniProt P68400); test: kinase Express Screen; assay type: biochemical
Experimental: as §1, §2, §3, §4

[13] = target: EF2K (Homo sapiens, UniProt O00418); test: kinase Express Screen; assay type: biochemical
Experimental: as §1, §2, §3, §4

[14] = target: MC4 (h) (Homo sapiens, UniProt P32245); test: CEREP ExpresSProfile; settings: read-out: Mean % of control specific binding (±SD)
Text: (§5) Receptor Reference Compound Mean % of control specific
Receptor & Ion-Channel Screening
CEREP ExpresSProfile panel

[15] = target: norepinephrine transporter (h) (Homo sapiens, UniProt P23975); test: CEREP ExpresSProfile; settings: read-out: Mean % of control specific binding (±SD)
Text: as §5
Receptor & Ion-Channel Screening
CEREP ExpresSProfile panel

[16] = target: M3 (h) (Homo sapiens, UniProt P20309); test: CEREP ExpresSProfile; settings: read-out: Mean % of control specific binding (±SD)
[17] = target: 5-HT2B (h) (Homo sapiens, UniProt P41595); test: CEREP ExpresSProfile; settings: read-out: Mean % of control specific binding (±SD)
Chain of 5-HT2B (h) (P41595 whole entry): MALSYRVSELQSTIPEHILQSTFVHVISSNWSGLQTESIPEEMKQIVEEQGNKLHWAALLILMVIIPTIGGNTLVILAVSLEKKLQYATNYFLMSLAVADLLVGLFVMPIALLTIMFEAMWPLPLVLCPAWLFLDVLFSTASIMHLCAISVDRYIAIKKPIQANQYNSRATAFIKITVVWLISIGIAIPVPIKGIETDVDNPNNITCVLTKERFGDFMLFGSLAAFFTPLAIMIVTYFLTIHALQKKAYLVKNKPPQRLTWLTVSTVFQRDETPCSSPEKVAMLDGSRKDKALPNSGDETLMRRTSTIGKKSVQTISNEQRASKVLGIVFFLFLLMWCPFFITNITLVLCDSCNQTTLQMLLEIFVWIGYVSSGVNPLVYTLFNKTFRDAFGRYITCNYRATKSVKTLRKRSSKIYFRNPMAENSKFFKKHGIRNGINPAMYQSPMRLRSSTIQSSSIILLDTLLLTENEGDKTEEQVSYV

[18] = target: Y1 (h) (Homo sapiens, UniProt P25929); test: CEREP ExpresSProfile; settings: read-out: Mean % of control specific binding (±SD)
[19] = system: alpha 1 (non-selective); test: CEREP ExpresSProfile; assay type: binding; settings: 1 µM
[20] = target: VPAC1 (VIP1) (h) (Homo sapiens, UniProt P32241); test: CEREP ExpresSProfile; settings: read-out: Mean % of control specific binding (±SD)
Text: as §5
Receptor & Ion-Channel Screening
CEREP ExpresSProfile panel

[21] = system: alpha 2 (non-selective); test: CEREP ExpresSProfile; assay type: binding; settings: 1 µM
[22] = target: GAL2 (h) (Homo sapiens, UniProt O43603); test: CEREP ExpresSProfile; settings: read-out: Mean % of control specific binding (±SD)
Chain of GAL2 (h) (O43603 whole entry): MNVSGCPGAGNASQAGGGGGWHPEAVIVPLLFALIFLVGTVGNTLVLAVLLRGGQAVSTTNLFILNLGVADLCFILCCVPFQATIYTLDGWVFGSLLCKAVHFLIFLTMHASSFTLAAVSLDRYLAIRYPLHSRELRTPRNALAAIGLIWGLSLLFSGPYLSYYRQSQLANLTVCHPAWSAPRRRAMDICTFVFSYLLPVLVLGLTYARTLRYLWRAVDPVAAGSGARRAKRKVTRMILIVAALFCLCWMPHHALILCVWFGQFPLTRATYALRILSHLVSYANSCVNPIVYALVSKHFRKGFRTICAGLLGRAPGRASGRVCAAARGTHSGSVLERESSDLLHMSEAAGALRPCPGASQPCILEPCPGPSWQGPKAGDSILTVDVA
Text: as §5
Receptor & Ion-Channel Screening
CEREP ExpresSProfile panel

[23] = target: 5-HT transporter (h) (Homo sapiens, UniProt P31645); test: CEREP ExpresSProfile; settings: read-out: Mean % of control specific binding (±SD)
[24] = target: 5-HT1B (Rattus norvegicus, UniProt P28564); test: CEREP ExpresSProfile; settings: read-out: Mean % of control specific binding (±SD)
[25] = target: CCK1 (CCKA) (h) (Homo sapiens, UniProt P32238); test: CEREP ExpresSProfile; settings: read-out: Mean % of control specific binding (±SD)
Text: as §5
Receptor & Ion-Channel Screening
CEREP ExpresSProfile panel

[26] = target: NTS1 (NT1) (h) (Homo sapiens, UniProt P30989); test: CEREP ExpresSProfile; settings: read-out: Mean % of control specific binding (±SD)
Chain of NTS1 (NT1) (h) (P30989 whole entry): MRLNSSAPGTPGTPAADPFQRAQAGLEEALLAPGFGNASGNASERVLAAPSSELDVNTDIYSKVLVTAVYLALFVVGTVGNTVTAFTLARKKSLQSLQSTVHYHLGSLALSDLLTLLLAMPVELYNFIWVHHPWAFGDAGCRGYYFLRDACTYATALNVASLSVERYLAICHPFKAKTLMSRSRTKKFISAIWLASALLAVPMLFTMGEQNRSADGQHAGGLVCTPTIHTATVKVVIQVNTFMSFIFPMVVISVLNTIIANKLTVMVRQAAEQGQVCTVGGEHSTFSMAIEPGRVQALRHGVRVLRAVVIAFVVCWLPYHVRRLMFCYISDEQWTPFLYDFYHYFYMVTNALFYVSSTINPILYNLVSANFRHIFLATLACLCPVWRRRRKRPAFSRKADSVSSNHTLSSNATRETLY

[27] = target: D1 (h) (Homo sapiens, UniProt P21728); test: CEREP ExpresSProfile; settings: read-out: Mean % of control specific binding (±SD)
Chain of D1 (h) (P21728 whole entry): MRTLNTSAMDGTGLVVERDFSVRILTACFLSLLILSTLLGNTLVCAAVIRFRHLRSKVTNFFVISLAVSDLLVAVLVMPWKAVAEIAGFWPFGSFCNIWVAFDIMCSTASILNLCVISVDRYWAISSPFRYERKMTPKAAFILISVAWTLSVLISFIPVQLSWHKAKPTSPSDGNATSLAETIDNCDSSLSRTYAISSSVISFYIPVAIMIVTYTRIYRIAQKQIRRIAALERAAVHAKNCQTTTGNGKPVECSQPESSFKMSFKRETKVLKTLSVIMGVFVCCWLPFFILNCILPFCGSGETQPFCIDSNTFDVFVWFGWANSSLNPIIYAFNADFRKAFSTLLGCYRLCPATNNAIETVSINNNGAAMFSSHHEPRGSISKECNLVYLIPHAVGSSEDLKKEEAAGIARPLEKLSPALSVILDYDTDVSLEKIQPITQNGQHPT

[28] = target: CXCR2 (IL-8B) (h) (Homo sapiens, UniProt P25025); test: CEREP ExpresSProfile; settings: read-out: Mean % of control specific binding (±SD)
Chain of CXCR2 (IL-8B) (h) (P25025 whole entry): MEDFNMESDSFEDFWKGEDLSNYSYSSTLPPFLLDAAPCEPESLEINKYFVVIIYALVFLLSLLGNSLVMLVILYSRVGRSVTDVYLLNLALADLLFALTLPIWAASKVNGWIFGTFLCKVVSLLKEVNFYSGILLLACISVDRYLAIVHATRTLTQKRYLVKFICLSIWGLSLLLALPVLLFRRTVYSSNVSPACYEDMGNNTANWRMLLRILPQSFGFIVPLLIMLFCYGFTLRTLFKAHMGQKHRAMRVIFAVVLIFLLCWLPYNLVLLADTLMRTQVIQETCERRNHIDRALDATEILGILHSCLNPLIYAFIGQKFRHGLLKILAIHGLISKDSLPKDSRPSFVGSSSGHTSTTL
Text: as §5
Receptor & Ion-Channel Screening
CEREP ExpresSProfile panel

[29] = system: SKCa channel; test: CEREP ExpresSProfile; assay type: binding; settings: 1 µM
[30] = system: Ca2+ channel (L, verapamil site); test: CEREP ExpresSProfile; assay type: binding; settings: 1 µM
[31] = target: CCR1 (h) (Homo sapiens, UniProt P32246); test: CEREP ExpresSProfile; settings: read-out: Mean % of control specific binding (±SD)
Chain of CCR1 (h) (P32246 whole entry): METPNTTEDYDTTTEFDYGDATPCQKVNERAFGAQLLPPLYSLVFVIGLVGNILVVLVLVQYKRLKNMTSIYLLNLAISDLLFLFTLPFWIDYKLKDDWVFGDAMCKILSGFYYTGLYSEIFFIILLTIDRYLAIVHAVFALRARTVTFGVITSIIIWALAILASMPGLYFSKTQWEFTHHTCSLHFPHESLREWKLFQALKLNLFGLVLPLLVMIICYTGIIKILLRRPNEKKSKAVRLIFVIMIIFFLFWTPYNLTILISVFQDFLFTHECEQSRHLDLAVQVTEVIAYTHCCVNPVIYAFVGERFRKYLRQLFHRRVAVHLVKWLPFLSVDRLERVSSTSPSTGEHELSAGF

[32] = target: H1 (h) (Homo sapiens, UniProt P35367); test: CEREP ExpresSProfile; settings: read-out: Mean % of control specific binding (±SD)
Chain of H1 (h) (P35367 whole entry): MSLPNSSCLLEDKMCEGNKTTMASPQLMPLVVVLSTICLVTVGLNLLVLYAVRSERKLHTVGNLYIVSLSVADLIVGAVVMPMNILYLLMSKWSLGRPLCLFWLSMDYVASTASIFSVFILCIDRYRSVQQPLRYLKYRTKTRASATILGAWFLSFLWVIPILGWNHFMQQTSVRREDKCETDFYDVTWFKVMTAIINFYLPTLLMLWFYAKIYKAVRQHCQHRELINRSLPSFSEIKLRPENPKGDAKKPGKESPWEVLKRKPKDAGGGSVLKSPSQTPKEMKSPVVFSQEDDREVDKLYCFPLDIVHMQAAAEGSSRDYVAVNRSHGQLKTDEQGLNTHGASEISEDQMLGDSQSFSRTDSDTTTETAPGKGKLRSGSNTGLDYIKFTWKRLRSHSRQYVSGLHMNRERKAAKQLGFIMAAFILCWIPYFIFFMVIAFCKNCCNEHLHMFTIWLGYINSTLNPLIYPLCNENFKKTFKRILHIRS

[33] = target: BRDT BD2 L/V (Homo sapiens, UniProt Q58F21, L306V); test: competitive AlphaLISA; assay type: binding
[34] = target: BRD3 BD1 WT (Homo sapiens, UniProt Q15059); test: competitive AlphaLISA; assay type: binding
[35] = target: BRD3 BD2 L/V (Homo sapiens, UniProt Q15059, L345V); test: competitive AlphaLISA; assay type: binding
[36] = target: BRD2 BD2 L/V (Homo sapiens, UniProt P25440, L383V); test: competitive AlphaLISA; assay type: binding
[37] = target: BRD3 BD2 WT (Homo sapiens, UniProt Q15059); test: competitive AlphaLISA; assay type: binding
Chain of BRD3 BD2 WT (Q15059 306-416): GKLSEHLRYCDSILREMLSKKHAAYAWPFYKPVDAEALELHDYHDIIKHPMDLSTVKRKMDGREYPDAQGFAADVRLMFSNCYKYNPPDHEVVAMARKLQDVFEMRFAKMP

[38] = target: WT somatic BET bromodomains; test: ITC; settings: mean and SD of all somatic bromodomains
[39] = target: WT BET bromodomains (BD1 and BD2 of BRD2, BRD3 and BRD4); test: competitive AlphaLISA (Bio-JQ1 displacement); assay type: binding, human; settings: mean and SD of all somatic bromodomains; active enantiomer concentration
[40] = system: L/V BET bromodomains (BD1 and BD2 of BRD2, BRD3 and BRD4); test: competitive AlphaLISA (Bio-JQ1 displacement); assay type: binding, human

SMILES: COC(=O)[C@H](C)[C@@H]1N=C(c2ccc(Cl)cc2)c2ccc(OC)cc2-n2c(C)nnc21 [(2R,3S)-7]
- remaining activity at 1 µM [1]: 109%
- remaining activity at 1 µM [2]: 103%
- remaining activity at 1 µM [3]: 104%
- remaining activity at 1 µM [4]: 89%
- remaining activity at 1 µM [5]: 93%
- remaining activity at 1 µM [6]: 97%
- remaining activity at 1 µM [7]: 101%
- remaining activity at 1 µM [8]: 82%
- remaining activity at 1 µM [9]: 94%
- remaining activity at 1 µM [10]: 108%
- remaining activity at 1 µM [11]: 99%
- remaining activity at 1 µM [12]: 97%
- remaining activity at 1 µM [13]: 97%
- remaining activity at 1 µM [14]: 89%
- remaining activity at 1 µM [15]: 88%
- remaining activity at 1 µM [16]: 101%
- remaining activity at 1 µM [17]: 109%
- remaining activity at 1 µM [18]: 122%
- Mean % of control specific binding (±SD) [19]: 99 (12) %
- remaining activity at 1 µM [20]: 98%
- Mean % of control specific binding (±SD) [21]: 98 (0) %
- remaining activity at 1 µM [22]: 96%
- remaining activity at 1 µM [23]: 96%
- remaining activity at 1 µM [24]: 98%
- remaining activity at 1 µM [25]: 90%
- remaining activity at 1 µM [26]: 106%
- remaining activity at 1 µM [27]: 116%
- remaining activity at 1 µM [28]: 96%
- Mean % of control specific binding (±SD) [29]: 103 (10) %
- Mean % of control specific binding (±SD) [30]: 108 (6) %
- remaining activity at 1 µM [31]: 102%
- remaining activity at 1 µM [32]: 108%

SMILES: CC[C@@H](C(=O)OC)[C@@H]1N=C(c2ccc(Cl)cc2)c2ccc(OC)cc2-n2c(C)nnc21 (racemic) [Compound 8]
- IC50 [33]: 398 nM
- IC50 [34]: 2510 nM
- IC50 [35]: 79.4 nM
- IC50 [36]: 200 nM
- IC50 [37]: 3980 nM
- ITC pKd ± SD WT [38]: <4.2
- AlphaLISA pIC50 ± SD WT [39]: 5.5 ± 0.2
- AlphaLISA pIC50 ± SD Δ ([40]; L/V minus WT): 1.4 ± 0.2
- AlphaLISA pIC50 ± SD L/V ([40]; mean and SD of all somatic bromodomains, active enantiomer concentration): 6.8 ± 0.2
